Laboratory results from patent publication US20250122181A1, “BENZIMIDAZOLES AS MODULATORS OF IL-17” (Janssen Pharmaceutica NV, priority 2021, published 2025).

Assays:
[1] = biological target: IL-17A(FLAG-Tagged): IL-17RA(His-Tagged) (Homo sapiens, UniProt Q16552, K93Q); test: IL-17A(FLAG-Tagged): IL-17RA(His-Tagged) Binding Disruption Eu-HTRF Assay, Protocol 1; conditions: Protocol 1, FLAG tagged IL-17A 2.5 nM; simple average if tested more than once
Description: An antibody directed against the FLAG tag of IL-17A (SEQ ID NO: 1) is labeled with the HTRF donor chromophore (Europium-cryptate). IL-17A is present as a dimer that is “locked into” this quaternary structure due to the formation of loop-spanning […] disulfide bridges. The construct of IL-17RA used in the assay excludes the […] portion of the receptor and is fused to a C-terminal 10×His tag (SEQ ID NO:2). An antibody directed against the His tag of the IL-17RA chimera is labeled with the HTRF acceptor chromophore (“D2”). The fluorescence-resonance energy transfer (FRET) depends on the vicinity of the donor chromophore to the acceptor, and interruption of the binding between the IL-17A and IL-17RA causes the reduction/loss of FRET. Therefore, this assay allows to evaluate the compound effect on the binding IL-17A and IL-17RA by monitoring the fluorescence intensity of donor vs acceptor. The assay was run using either Protocol 1 or Protocol 2 as described below.
Protocol 1. 40 nl of 2-fold serial diluted compound solution for total 22 dilution points is added into each well of a 1536-well, white, low-volume, non-binding plate (Greiner #782904), then 2 μl of FLAG tagged IL-17A at 2× final concentration (2.5 nM) in solution of PBS+0.01% Triton-X100 is added to each well. The assay plate is briefly centrifuged then incubated for 1 h at rt. A mixed solution is prepared containing 2×5 nM 10HIS×IL-17RA, 2×2.5 nM Eu-anti-FLAG (CISBIO), 2×5 nM D2-anti-HIS (CISBIO) in PBS+0.01% Triton-X100+200 mM Potassium Fluoride (Sigma 60238) and 2 μl of mix is added to each well of the assay plate. The plate is briefly centrifuged then incubated for 2 h at rt. The HTRF intensities at the wavelength of donor (620 nm) and acceptor (665 nm) are measured using BMG Pherastar. The ratio between intensities at two wavelengths is calculated and plotted against the compound concentration and the data is fitted to a one-site competition model to yield IC50 of the compound.

[2] = tested on: IL-17A-induced G-CSF production in human normal keratinocyte (NHK); test: NHK Assay: IL-17A-induced G-CSF production in human normal keratinocyte; assay type: cell-based; conditions: 24 h, IL-17A 5 ng/mL, simple average if tested more than once
Method in brief: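 Compound titrations are first mixed with recombinant human IL-17A for 1 h at room temperature. The mixture goes onto adult normal human keratinocytes (final IL-17A 5 ng/mL, 5% FBS, 0.2% DMSO) for 24 h at 37 °C. Secreted G-CSF is then measured by HTRF and IC50 fitted.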

Sequence of UniProt Q16552 (Q16552 with tags, fused parts or gaps K93Q): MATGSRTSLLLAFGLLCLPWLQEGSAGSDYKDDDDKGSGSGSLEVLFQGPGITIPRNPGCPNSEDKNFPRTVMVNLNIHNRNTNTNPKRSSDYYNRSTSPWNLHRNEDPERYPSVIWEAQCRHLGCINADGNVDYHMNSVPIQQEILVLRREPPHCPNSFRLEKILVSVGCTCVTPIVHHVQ

SMILES | IC50 [1] | IC50 ([2]; Homo sapiens, Keratinocyte) | IC50 [2]
C[C@H](O[C@H](C)C(NC(=O)c1ccnn1C)c1nc2cc([C@@H](C3CC3)N3C[C@@H](C(F)(F)F)NC3=O)ccc2[nH]1)C(F)(F)F (single isomer, unassigned) [Example 14, N-((1R*,2R)-1-(5-((R)-Cyclopropyl((S)-2-oxo-4-(trifluoromethyl)imidazolidin-1-yl)methyl)-1H-benzo[d]imidazol-2-yl)-2-(((S)-1,1,1-trifluoropropan-2-yl)oxy)propyl)-1-methyl-1H-pyrazole-5-carboxamide] | < 50 nM | < 50 nM | 
CC(C)n1nccc1C(=O)NC(c1nc2cc([C@@H](C3CC3)N3C[C@@H](C(F)(F)F)NC3=O)ccc2[nH]1)[C@@H](C)O[C@@H](C)C(F)(F)F (single isomer, unassigned) [Example 15, N-((1R*,2R)-1-(5-((R)-Cyclopropyl((S)-2-oxo-4-(trifluoromethyl)imidazolidin-1-yl)methyl)-1H-benzo[d]imidazol-2-yl)-2-(((S)-1,1,1-trifluoropropan-2-yl)oxy)propyl)-1-isopropyl-1H-pyrazole-5-carboxamide] | < 50 nM | < 50 nM | 
CC(C)(OC[C@@H](NC(=O)c1nonc1C1CC1)c1nc2cc(CN3C[C@@H](C(F)(F)F)NC3=O)ccc2[nH]1)C(F)(F)F (single isomer, unassigned) [Example 16] | > 100 nM | > 100 nM | 
Cc1nonc1C(=O)NC(COC(C)(C)C(F)(F)F)c1nc2nc([C@@H](C3CC3)N3CC(F)(F)CNC3=O)ccc2[nH]1 (single isomer, unassigned) [Example 18, N—((R*)-1-(5-((R)-Cyclopropyl(5,5-difluoro-2-oxotetrahydropyrimidin-1(2H)-yl)methyl)-1H-imidazo[4,5-b]pyridin-2-yl)-2-((1,1,1-trifluoro-2-methylpropan-2-yl)oxy)ethyl)-4-methyl-1,2,5-oxadiazole-3-carboxamide] | < 50 nM | 50 to 100 nM | 
Cc1nonc1C(=O)NC(c1nc2nc([C@@H](C3CC3)N3CC(F)(F)CNC3=O)ccc2[nH]1)[C@@H](C)O[C@H](C)C(F)(F)F (single isomer, unassigned) [Example 19, N-((1R*,2R)-1-(5-((R)-Cyclopropyl(5,5-difluoro-2-oxotetrahydropyrimidin-1(2H)-yl)methyl)-1H-imidazo[4,5-b]pyridin-2-yl)-2-(((R)-1,1,1-trifluoropropan-2-yl)oxy)propyl)-4-methyl-1,2,5-oxadiazole-3-carboxamide] | < 50 nM | 50 to 100 nM | 
C[C@@H](O[C@H](C)C(F)(F)F)C(NC(=O)c1nonc1C1CC1)c1nc2nc([C@@H](C3CC3)N3CC(F)(F)CNC3=O)ccc2[nH]1 (single isomer, unassigned) [Example 20, 4-Cyclopropyl-N-((1R*,2R)-1-(5-((R)-cyclopropyl(5,5-difluoro-2-oxotetrahydropyrimidin-1(2H)-yl)methyl)-1H-imidazo[4,5-b]pyridin-2-yl)-2-(((R)-1,1,1-trifluoropropan-2-yl)oxy)propyl)-1,2,5-oxadiazole-3-carboxamide] | < 50 nM | < 50 nM | 
COC[C@H](c1ccc2[nH]c(C(NC(=O)c3nonc3C)[C@@H](C)O[C@H](C)C(F)(F)F)nc2n1)N1CC(F)(F)CNC1=O (single isomer, unassigned) [Example 21, N-((1R*,2R)-1-(5-((S)-1-(5,5-Difluoro-2-oxotetrahydropyrimidin-1(2H)-yl)-2-methoxyethyl)-1H-imidazo[4,5-b]pyridin-2-yl)-2-(((R)-1,1,1-trifluoropropan-2-yl)oxy)propyl)-4-methyl-1,2,5-oxadiazole-3-carboxamide] | < 50 nM | < 50 nM | 
COC[C@H](c1ccc2[nH]c(C(COC(C)(C)C(F)(F)F)NC(=O)c3nonc3C)nc2c1)N1C[C@@H](C(F)(F)F)NC1=O (single isomer, unassigned) [Example 31, N—((R*)-1-(5-((S)-2-Methoxy-1-((S)-2-oxo-4-(trifluoromethyl)imidazolidin-1-yl)ethyl)-1H-benzo[d]imidazol-2-yl)-2-((1,1,1-trifluoro-2-methylpropan-2-yl)oxy)ethyl)-4-methyl-1,2,5-oxadiazole-3-carboxamide] | < 50 nM | < 50 nM | 
COC[C@H](c1ccc2[nH]c(C(COC(C)(C)C(F)(F)F)NC(=O)c3nonc3C)nc2c1)N1CC(F)(F)CNC1=O (single isomer, unassigned) [Example 34, N—((R*)-1-(5-((S)-1-(5,5-Difluoro-2-oxotetrahydropyrimidin-1(2H)-yl)-2-methoxyethyl)-1H-benzo[d]imidazol-2-yl)-2-((1,1,1-trifluoro-2-methylpropan-2-yl)oxy)ethyl)-4-methyl-1,2,5-oxadiazole-3-carboxamide] | < 50 nM | < 50 nM | 
COC[C@H](c1ccc2[nH]c(C(COC(C)(C)C(F)(F)F)NC(=O)c3nonc3C3CC3)nc2c1)N1CC(F)(F)CNC1=O (single isomer, unassigned) [Example 35, 4-Cyclopropyl-N—((R*)-1-(5-((S)-1-(5,5-difluoro-2-oxotetrahydropyrimidin-1(2H)-yl)-2-methoxyethyl)-1H-benzo[d]imidazol-2-yl)-2-((1,1,1-trifluoro-2-methylpropan-2-yl)oxy)ethyl)-1,2,5-oxadiazole-3-carboxamide] | < 50 nM | < 50 nM | 
Cc1nonc1C(=O)NC(COC(C)(C)C(F)(F)F)c1nc2cc([C@@H](COC3CC3)N3C[C@@H](C(F)(F)F)NC3=O)ccc2[nH]1 (single isomer, unassigned) [Example 41, N—((R*)-1-(5-((S)-2-cyclopropoxy-1-((S)-2-oxo-4-(trifluoromethyl)imidazolidin-1-yl)ethyl)-1H-benzo[d]imidazol-2-yl)-2-((1,1,1-trifluoro-2-methylpropan-2-yl)oxy)ethyl)-4-methyl-1,2,5-oxadiazole-3-carboxamide] | < 50 nM | < 50 nM | 
COC[C@H](c1ccc2[nH]c(C(COC(C)(C)C(F)(F)F)NC(=O)c3nonc3C3CC3)nc2c1)N1C[C@@H](C(F)(F)F)NC1=O (single isomer, unassigned) [Example 47, 4-Cyclopropyl-N—((R*)-1-(5-((S)-2-methoxy-1-((S)-2-oxo-4-(trifluoromethyl)imidazolidin-1-yl)ethyl)-1H-benzo[d]imidazol-2-yl)-2-((1,1,1-trifluoro-2-methylpropan-2-yl)oxy)ethyl)-1,2,5-oxadiazole-3-carboxamide] | < 50 nM | < 50 nM | 
COCC(c1ccc2[nH]c([C@H](COC(C)(C)C(F)(F)F)NC(=O)c3nonc3C)nc2c1)N1CC(C)(C)NC1=O (single isomer, unassigned) [Example 48, N—((R)-1-(5-((R*)-1-(4,4-Dimethyl-2-oxoimidazolidin-1-yl)-2-methoxyethyl)-1H-benzo[d]imidazol-2-yl)-2-((1,1,1-trifluoro-2-methylpropan-2-yl)oxy)ethyl)-4-methyl-1,2,5-oxadiazole-3-carboxamide] | < 50 nM | < 50 nM | 
COCC(c1ccc2[nH]c([C@H](COC(C)(C)C(F)(F)F)NC(=O)c3nonc3C)nc2c1)N1CC(C)(C)NC1=O (single isomer, unassigned) [Example 49, N—((R)-1-(5-((S*)-1-(4,4-Dimethyl-2-oxoimidazolidin-1-yl)-2-methoxyethyl)-1H-benzo[d]imidazol-2-yl)-2-((1,1,1-trifluoro-2-methylpropan-2-yl)oxy)ethyl)-4-methyl-1,2,5-oxadiazole-3-carboxamide] | > 100 nM |  | > 100 nM
COC[C@H](c1ccc2[nH]c(C(COC(C)(C)C(F)(F)F)NC(=O)c3cnn(CC4CC4)n3)nc2c1)N1CC(F)(F)CNC1=O (single isomer, unassigned) [Example 51, 2-(Cyclopropylmethyl)-N—((R*)-1-(5-((S)-1-(5,5-difluoro-2-oxotetrahydropyrimidin-1(2H)-yl)-2-methoxyethyl)-1H-benzo[d]imidazol-2-yl)-2-((1,1,1-trifluoro-2-methylpropan-2-yl)oxy)ethyl)-2H-1,2,3-triazole-4-carboxamide] | < 50 nM | 50 to 100 nM | 
